This note sets out measurements from patent US11547740B2, “Histone deacetylase (HDAC) inhibitor up-regulates car expression and targeted antigen intensity, increasing antitumor efficacy” (Baylor College of Medicine, priority 2013, dated 2023).

What all share (type): cell-based, human
Experiment [1] concerns MUC1 expression on CAR-MUC1-resistant CAPAN1 cells. Description: MUC1 antigen expression by flow after decitabine treatment. To be noted: 1 μM, after 4 days of treatment; 3.5 before exposure. The method, then: One million CAPAN1 cells were fixed with 80% methanol and washed with 0.1% tween-PBS. 1 ug of anti-MUC1 antibody (Abcam Inc, Cambridge, Mass.) was added and incubated at RT for 30 mins. Then cultures were washed and incubated with 0.4 ug of a goat anti-mouse IgG APC antibody (BD Pharmingen, San Jose, Calif.) for 20 mins at 4° C. in the dark. Cells were then washed twice and analyzed.
CAPAN1 cells were culture in a T175 flask using complete IMDM media contained 1 μM 5-Aza-2′-deoxycytidine-decitabine-(Sigma-aldrich Inc., Saint Louis, Mo.) for 4 days, with fresh media+decitabine replenished daily. Subsequently, decitabine-treated CAPAN1 cells were rested for 2 days in complete IMDM, and then co-cultured with CAR-MUC1 T cells.
Finally, to determine whether CAR-T cell potency could be improved by combination with conventional epigenetic modulators, which can increase TAA expression by demethylating DNA, CAPAN1 cells were cultured that had been previously treated with CAR-MUC1 T cells and consequently expressed only low levels of the target antigen, with 1 μM of decitabine, a hypomethylating agent.

Experiment [2] has as its system CAPAN1 cells initially treated with CAR-MUC1 T cells. Description: 72 hr co-culture of decitabine-treated resistant CAPAN1 cells with CAR-MUC1 T cells. The note with it: 1 μM for 4 days, then 72 hr co-culture, E:T 5:1. From the text: Data is reported as the mean±SD; n=4. (b) To determine whether decitabine exposure would upregulate MUC1 expression in this resistant population we evaluated antigen expression, by flow, on CAR-resistant cells (grey histogram) and those cultured in decitabine (black histogram). To next assess whether decitabine treatment resensitized CAPAN1 cells to CAR-MUC1 T cells we performed a 72-hr co-culture experiment using CAPAN1 cells initially treated with CAR-MUC1 T cells (c) then either left untreated or cultured with decitabine as targets (E:T 5:1). After 72-hours retreatment with CAR-MUC1 T cells, residual tumor cells were again quantified by flow. Data is reported as the mean±SD; n=2.
CAPAN1, 293T, 293T-MUC1-mOrange or 293T-PSCA-GFP, were used as targets. Briefly, GFP/CAPAN1 cells were mixed with either OKT3/CD28 blasts or CAR-modified T cells at a 1:5 ratio in the presence of IL2 (50 U/ml) in complete media. For our engineered tumor model, 293T-MUC1-mOrange and 293T-PSCA-GFP (or control 293T cells alone) were mixed at 1:1 ratio then OKT3/CD28 blasts or CAR-modified T cells were added to the mixture; 10:1 (T cells:tumor cell), in the presence of IL2 (50 U/ml) in complete media. After 72 hours all residual cells were collected, counted, stained and then analyzed by flow cytometry (Gallios; Beckman Coulter Inc., Brea, Calif.). […]

The test system of experiment [3] is CAR-MUC1 expression on effector T cells. The experiment is described as follows: CAR expression on modified T cells cultured with decitabine. The note with it: after one day and several days. The method, then:
T cells were analyzed 3-4 weeks after the generation of the culture by surface-stained with monoclonal antibodies to: CD3, CD4, CD8, CD19, CD56, CD27, CD28, CD45RO, and CD62L (Becton Dickinson B D, Franklin Lakes, N.J.). Cells were washed once with PBS supplemented with 2% FBS, pelleted, and antibodies added in saturating amounts (10 ul). To detect CAR-transduced cells, T cells were stained with a monoclonal antibody Fc-specific cyanine-Cy5-conjugated antibody (Jackson Immuno Research Laboratories, Inc., West Grove, Pa.), which recognizes the IgG1-CH2CH3 component of the receptor. Cells were analyzed using a Gallios Flow cytometer and the data analyzed using Kaluza software (Beckman Coulter Inc., Brea, Calif.).
It is illustrated therein that one can modulate the intensity of CAR-MUC1 expression on effector cells when the effector cells are cultured with decitabine.

On to `Nc1ncn([C@H]2C[C@H](O)[C@@H](CO)O2)c(=O)n1` [decitabine, 5-Aza-2′-deoxycytidine], for which, in experiment [1], the “intensity of MUC1 expression” value was 26.0 relative mean fluorescence intensity. Further, the “re-sensitization of resistant tumor cells to CAR-MUC1 T cell killing” value in experiment [2] is recorded as “re-sensitizing previously resistant tumor cells to CAR-MUC1 T cell killing”. Besides, the “CAR-MUC1 expression on effector cells” value in experiment [3] is on record as “increase in expression”.
